Source: patent publication US10907159B2, “Methods of treating cancer by inhibition of DNA repair proteins using antisense based therapies” (SARISSA INC., priority 2015, dated 2021)
Entries after “also recorded” stand apart in the source; their conditions may differ. Where two headings read alike, the source gives them in different places. Each block holds one compound with its values, some of them ahead of it. d = 2'-deoxy (DNA); m = 2'-O-methyl

How the values were obtained:
Type in all cases: cell-based, human
[1] = test system: SKOV-3 cells; assay: Cell proliferation assay, ASO transfection and/or drug (cell counting); conditions: single olaparib treatment, 96 hours; FIG. 27C
Description: FIG. 24 illustrates that BRCA2 inhibition sensitizes ovarian cancer and breast cancer cell lines to olaparib treatment. SKOV-3 (A) and CaOV3 (B) cells were transfected with control ASO (•) or BRCA2 ASO (∘) and then treated with three different concentrations of olaparib. Proliferation was determined by cell counting 96 hours post-transfection (*p<0.05). C: BRCA2 mRNA levels were measured by qPCR 24 hours following BRCA2 ASO transfection in SKOV-3, CaOV3, 211 H and H2052 cell lines.
E: SKOV-3 cells were transfected with control or BRCA2 ASO and then treated with olaparib 24 hours post transfection. Ninety-six hours post transfection, cells were counted, plated, and re-transfected with control ASO or BRCA2 ASO and re-treated with olaparib. Cell counts were performed 96 hours post transfection (*p<0.05). […]
A: BRCA2-wild type SKOV-3 cells (black bars), […] MCF-7 cells (white bars), and BRCA2-mutated CAPAN-1 cells (grey bars) were treated simultaneously but separately with BRCA2 ASO (20 nM). […] Ninety-six hours post-transfection, cells were counted and proliferation determined (% of proliferation after control ASO treatment).
C: SKOV-3, MCF-7 and CAPAN-1 cells were treated with two different concentrations of olaparib for 96 hours. After drug treatment they were counted and proliferation was determined as a percent of that of vehicle-treated cells. […]

[2] = test system: A549b cells; assay: cells; conditions: Homo sapiens, curves extrapolated, unit inferred, read-out: concentration of olaparib required to inhibit proliferation of A549b cells by 50% (IC50)
Description: OLIGOs were introduced into cells with the use of Lipofectamine 2000 (LFA2K) (Invitrogen, Burlington, Ontario, Canada). OLIGOs were mixed with LFA2K at a ratio of 0.2 μg/ml per 10 nM OLIGO. The mixture was prepared at 11× the final concentration to which cells were exposed, so that 200 μL was added to 2 mL of medium in which cells were plated. After incubating at room temperature for 20 minutes, according to manufacturer's instructions, the OLIGOs were added to the cell medium. The OLIGO/LFA2K mix was then incubated (37° C.) on the cells for 4 hours, after which a second volume of medium was added. Cells were then incubated for 20 hours. Following this incubation, the OLIGO-containing medium was replaced with OLIGO-free medium.
For cells treated with the drug olaparib, for the purposes of determining whether inhibitory activity was enhanced by the OLIGO pretreatment, olaparib was added at this time, in concentrations of from 0.01 μM to 3 μM. At this point, replicate flasks from the OLIGO-treatment were used to enumerate cell content, as this varied among treatments over the initial 24-hour exposure. This was done so that the effect of treatment with olaparib could be ascertained based on the cell population that was present at the time of initiation of exposure to olaparib. Exposure to the olaparib was initiated by addition of 0.2-volume of a preparation of the drug, at 6× final concentration in growth medium, to the fresh drug-free medium on the cells (1 ml of drug into 5 ml of medium). Following a further 4-day incubation, the proliferation of the treated cells (fold-increase in cell number) was calculated as a percentage of that of control cells. Cell numbers were enumerated on an electronic particle counter (Beckman Coulter, Mississauga, ON). As indicated in Example 1, for the purpose of determining the anti-proliferative effect of antisense OLIGOs alone, the proliferation of cells treated with antisense OLIGOs was calculated as a percent of that of cells treated with an equivalent concentration of non-complementary control OLIGO (in this case OLIGO 32). However, for the purpose of determining the anti-proliferative effect of olaparib against antisense or non-complementary (control) OLIGO-treated cells, the proliferation was calculated as a percent of cells treated with the respective OLIGO.
These experiments were carried out essentially as described in Example 3, with the following changes. The drug tested was cisplatin instead of olaparib, and cisplatin was tested in concentrations ranging from 0.5 μM to 2 μM.
These experiments were carried out essentially as described in Example 3, with the following changes. The drug tested was melphalan in concentrations ranging from 2 μM to 10 μM.
These experiments were carried out essentially as described in Example 3, with the following changes. The drug tested was carboplatin at concentrations ranging from 5 μM to 40 μM.
These experiments were carried out essentially as described in Example 3, with the following changes. The drug tested was oxaliplatin was tested in concentrations ranging from 0.2 μM to 2.5 μM.
Cisplatin was added to the final concentration indicated, and as described in Example 3. Cells were incubated for 4 days, at which time cell number was counted. Proliferation was calculated as a percent of siRNA-treated, non-cisplatin-treated controls.

[3] = test system: MCF-7 cells; assay: Cell proliferation assay, ASO and/or olaparib (cell counting); conditions: single olaparib treatment, 96 hours, vs vehicle; FIG. 27C
Description: (§1) A: BRCA2-wild type SKOV-3 cells (black bars), […] MCF-7 cells (white bars), and BRCA2-mutated CAPAN-1 cells (grey bars) were treated simultaneously but separately with BRCA2 ASO (20 nM). Due to differing growth medium requirements and to avoid fluorescent label-induced changes in drug sensitivity, cells were not co-cultured. They were treated independently, at the same time with the same materials. Ninety-six hours post-transfection, cells were counted and proliferation determined (% of proliferation after control ASO treatment).
(§2) C: SKOV-3, MCF-7 and CAPAN-1 cells were treated with two different concentrations of olaparib for 96 hours. After drug treatment they were counted and proliferation was determined as a percent of that of vehicle-treated cells.
FIG. 28 illustrates combined BRCA2 ASO and olaparib treatment decreases the proliferation of both HRR-deficient and HRR-proficient cells. […] Proliferation was determined using cell counting 96 hours post-transfection.
Four hours post-transfection, cells were seeded into 6 well dishes in appropriate experimental groups. […] Ninety-six hours post transfection, cells were collected and counted (Coulter Particle Counter). Proliferation was determined based on initial cell density and calculated as a percentage of ASO+vehicle treated cells.

[4] = test system: SKOV-3^shBRCA2 cells (low BRCA2); assay: Co-culture model, unmixed population, proliferation; conditions: olaparib 2.5 μM; FIG. 29A
Description: (§3) A: SKOV-3^shBRCA2 cells (low BRCA2) were mixed with SKOV-3^shControl cells (high BRCA2) at a 3:1 ratio, resulting in a primarily HRR-deficient mixed cell population. Parental and mixed populations were treated for the first time with olaparib (1° olaparib, 2.5 μM) or vehicle. Cells were re-plated at equal density 96 hours post-treatment. Parental and mixed populations were then treated a second time with olaparib (2° olaparib, 2.5 μM) or control vehicle. Ninety-six hours post-treatment, proliferation for all groups was determined based on cell counts and seeding density following 1° olaparib or vehicle treatment. White bars: 2° olaparib. Black bars: no 2° olaparib.
(§4) To mimic a heterogeneous tumor cell population that is predominantly HRR-deficient, we co-cultured SKOV-3^shBRCA2 (low BRCA2) and SKOV-3^shcontrol (high BRCA2) in a 3:1 ratio. The mixed cell population, along with unmixed SKOV-3^shBRCA2 and SKOV-3^shcontrol populations, was treated with olaparib (1° Olaparib), then counted, re-seeded and treated with olaparib a second time (2° Olaparib) (FIG. 32).

[5] = test system: mixed cell population SKOV-3^shBRCA2:SKOV-3^shControl 3:1; assay: Co-culture model of BRCA2 heterogeneity, proliferation; conditions: 2.5 μM, FIG. 29A
Description: as §3
B: SKOV-3^shBRCA2 cells (low BRCA2), SKOV-3^shControl cells (high BRCA2), and a mixed cell population (3:1, low BRCA2:high BRCA2) were transfected with control ASO or BRCA2 ASO followed by treatment with vehicle or olaparib (2.5 μM). Proliferation (percent of control ASO-treated cells) was determined 96 hours post-transfection. […]
as §4

[6] = test system: CAPAN-1 cells; assay: Cell proliferation assay, ASO and/or drug (cell counting); conditions: single olaparib treatment, 96 hours, vs vehicle; FIG. 27C
Description: as §1, §2
Four hours post-transfection, cells were seeded into 6 well dishes in appropriate experimental groups. Twenty-four hours post transfection, cells were treated with olaparib (Selleckchem) at three concentrations. Ninety-six hours post transfection, cells were collected and counted (Coulter Particle Counter). Proliferation was determined based on initial cell density and calculated as a percentage of ASO+vehicle treated cells.

[7] = test system: BRCA2 mRNA; assay: RT-qPCR of BRCA2 mRNA in A549 cells after OLIGO transfection; conditions: 20 nM OLIGO, 24 hours post-transfection; FIG. 16
Description: (§5) Briefly, A549 cells seeded at a density of 2.0×10^5 per flask were transfected with 20 nM of OLIGO specific for each target or control OLIGO using Lipofectamine 2000 as the transfection reagent. Twenty four hours post-transfection mRNA was extracted and reverse transcribed into cDNA. RT-qPCR was performed for target mRNA levels using TaqMan reagents according to established protocols.

[8] = test system: TS mRNA; assay: RT-qPCR of TS mRNA in A549 cells after OLIGO transfection; conditions: 20 nM OLIGO, 24 hours post-transfection; FIG. 16
Description: as §5

[9] = test system: A549b cells; assay: Proliferation of A549b cells after OLIGO/siRNA transfection (cell counting); conditions: for relative proliferation: FIG. 12
Description: Cultured cell lines were maintained in minimum essential medium a with nucleosides plus 10% fetal bovine serum and penicillin (50 units/mL)/streptomycin (50 mg/L) (growth medium). Cultures were incubated in a humidified atmosphere of 5% CO2 at 37° C. Cultured cell lines were maintained and cytotoxicity assays conducted as described previously (3). Rapidly proliferating cells were utilized for establishing cultures of experimental cells, which were allowed to plate overnight in 25-cm^2 flasks prior to manipulation. An established cell line of non-small-cell lung carcinoma (NSCLC), A549b, which was propagated by serial dilution from a single cell of an A549 parent cell line, was used for the establishment of antisense activity of oligonucleotides. This cell line proliferates with a mean generation time of approximately 20 hours, and is capable of forming tumours in immunodeficient mice with a take rate of greater than 90%. Therefore, this cell line is a good model system that can be used in both in vitro and in vivo experiments to test the activity of OLIGOs.
OLIGOs were introduced into cells with the use of Lipofectamine 2000 (LFA2K) (Invitrogen, Burlington, Ontario, Canada). OLIGOs were mixed with LFA2K at a ratio of 0.2 μg/ml per 10 nM OLIGO. The mixture was prepared at 11× the final concentration to which cells were exposed, so that 200 μL was added to 2 mL of medium in which cells were plated. As controls, cells were exposed to medium alone (no treatment), LFA2K alone at concentrations equivalent to those used in combination with OLIGOs (in some experiments only the maximum LFA2K concentration was used as a control), or OLIGO having no complementarity with any human mRNA. The OLIGO/LFA2K mixtures were then incubated at room temperature for 20 minutes, according to instructions supplied with the LFA2K, followed by addition of the OLIGOs to the cell medium. The OLIGO/LFA2K mix was then incubated (37° C.) on the cells for 4 hours, after which a second volume of medium was added. Cells were then incubated for 20 hours. Following this incubation, the OLIGO-containing medium was replaced with drug-free medium (i.e. medium without OLIGOs) and the cells were incubated for an additional 4 days. Following the 4-day incubation, the proliferation of the treated cells (fold-increase in cell number) was calculated as a percentage of that of control cells. Cell numbers were enumerated on an electronic particle counter (Beckman Coulter, Mississauga, ON). For the purpose of determining the anti-proliferative effect of antisense OLIGOs, the proliferation of cells treated with antisense OLIGOs was calculated as a percent of that of cells treated with an equivalent concentration of non-complementary control OLIGO (in this case OLIGO 32) mixed with an equivalent amount of LFA2K.
OLIGO-containing medium was removed and replaced with fresh medium. Cells were incubated for 4 days, at which time cell number was counted. Proliferation was calculated as a percent of non-targeting OLIGO-treated controls.
Cells were incubated for 4 days, at which time cell number was counted. Proliferation was calculated as a percent of controls.

- IC50 ([2]; in the absence of BR1 (control OLIGO 32)): ~5000 nM
- IC50 ([2]; in the presence of BR1 pretreatment): ~50 nM
Compound: O=C(c1cc(Cc2n[nH]c(=O)c3ccccc23)ccc1F)N1CCN(C(=O)C2CC2)CC1 [olaparib, reference compound]
- effect of olaparib on proliferation [1]: no effect on SKOV-3 proliferation
- decreased the proliferation [3]: 39%±6.8%
- response to olaparib after two treatments [4]: remained sensitive to olaparib even after two treatments
- response to initial olaparib treatment ([5]; 1° olaparib): sensitive to initial treatment with olaparib
- response to second olaparib treatment ([5]; 2° olaparib): completely unresponsive to a second treatment
- decreased the proliferation [6]: 94%±4.6%

Compound: 5′-gccaguGGCAACATccuuaa-3′ (antisense GCCAGUGGCAACATCCUUAA; sugars from the 5' end m6 d8 m6, all phosphorothioate, methylation of C not given here) [OLIGO 83]
- effect on BRCA2 mRNA level [7]: no significant effect on BRCA2 mRNA
- effect on TS mRNA level [8]: reduction in TS mRNA
- relative proliferation ([9]; 20 nM OLIGO 83, vs OLIGO 491S): approximately 20%

Compound: 5′-ugcccgATACACAAacgcug -3′ (UGCCCGATACACAAACGCUG; gapmer, lower-case wings modified, type not given here) [BR3]
- relative proliferation ([9]; 10 nM of BR3, vs equivalent concentration of OLIGO 491S): approximately 85%
- anti-proliferative effect as single agent ([9]; A549/A549b cells, 4 h transfection, counted after 4 d, vs non-targeting control OLIGO): inhibit proliferation of human non-small cell lung cancer A549 cells in a concentration-dependent manner; also recorded: antiproliferative on its own

Compound: 5′-UUAUCCAGGACAUCACUGC-3′ [RADb]
- inhibited proliferation of A549b cells ([9]; siRNA at 2 nM, FIG. 21): over 50%
